In PMC12216609, “Inhibitors of eIF1A-ribosome interaction unveil uORF-dependent regulation of translation initiation and antitumor and antiviral effects” (The EMBO Journal, 2025):
“And” between values parts separate entries of the source, which are not always exact repeats. Equal values may be shown once.

Legend:
[1] = tested on: uORF-bearing 5'UTR firefly reporters in HEK293T cells; test: uORF reinitiation / leaky scanning firefly reporters; conditions: for 95nt from uORF to main ORF experiment, minus 95nt, average (DMSO = 1): minus 95nt reporter; for averages of FF vs RL / FF vs RL / averages of FF vs RL 2 / FF vs RL 2: 95nt experiment; for averages of FF vs RL 2 / FF vs RL 2: block FF-2 (c113)
From the text: (M) The reference and uORF-bearing reporters were transfected to HEK293T cells together with RL, which served to normalize translation efficiency. The reporter activities are represented as firefly vs RL; n ≥3 independent biological replicates, error bars represent SEM. *P < 0.05, **P < 0.01, Student t test. (N) Firefly Reporters (J) were transfected to HEK293T cells together with normalizing RL. […] Results are represented as firefly vs. RL normalized to DMSO in each biological replicate; n = 4, error bars represent SEM. *P < 0.05, **P < 0.01, Student t test.
In the first and second, we inserted an out-of-frame uAUG 46 or 95 nucleotides before the main ORF, respectively, followed by a downstream stop codon generating an uORF of 10 amino acids. In these constructs, the translation from the main ORF could be either by reinitiation or leaky scanning. In the third construct, this out of frame uAUG lacks a stop codon, causing initiation from the main ORF to exclusively occur via leaky scanning (Fig. 4L). These reporters were transfected into HEK293T cells together with RL luciferase reporter for normalizing transfection efficiency. […] We next examined these reporters in the presence of 1Ais.

[2] = tested on: CUG/GUG vs AUG start codon luciferase reporters in HEK293T cells; test: Near-cognate AUG starting codon fidelity reporter assay (GUG, CUG vs AUG); type: cell-based; conditions: for CUG vs AUG (%): CUG start codon reporter relative to AUG reporter (AUG = 100); for CUG vs AUG (%) / GUG vs AUG (%): single-experiment calculation; for GUG vs AUG (%): GUG start codon reporter relative to AUG reporter (AUG = 100)
Method: We next considered the importance of eIF1A in controlling start codon fidelity in yeast and mammalian cells (Martin-Marcos et al, [2011]; Martin-Marcos et al, [2017]; Sehrawat et al, [2019]; She et al, [2023]) and tested how inhibition of eIF1A by 1Ais affects the initiation from near-cognate AUG. The effect of 1Ais was analyzed using firefly luciferase reporters bearing either AUG (control), CUG, or GUG as the exclusive translation initiation sites. Co-transfected GFP reporter served as an internal control for transfection efficiency.
For the near-cognate AUG Starting codon fidelity reporter assay, HEK293T cells were transfected with 100 ng of the previously described luciferase reporter constructs driven either by AUG, CUG, and GUG (Tang et al, [2017]) together with GFP expressing plasmid (20 ng) as normalizing control. Luciferase and GFP levels were determined as described above.
Appendix Figure S1: (A) HEK293T cells were transfected with Luciferase reporter genes with either CUG or AUG as their exclusive starting codon. 6 hours after transfection, cells were exposed to 1Ais, and the luminescence from all constructs was measured after overnight incubation. Bars represent the ratio between luminescence from the AUG starting codon and CUG after normalization with co-transfected GFP; Error bars represent SEM, * denotes p<0.05 (T-test comparing to DMSO control), n=≥4 independent biological replicates.

[3] = target: T1, eIF1A-RPS10 interaction (Homo sapiens, UniProt P46783+P47813); test: Split-Renilla luciferase eIF1A-RPS10 interaction screen, dose-response; type: biochemical; conditions: Appendix Table S1; read-out: IC50 from the split RL screen
T1 construct: made in house; host or cells: E. coli BL21 (PRSFduet); unpurified lysate supernatant
Method: While knockdown (KD) studies of eIF1A provided valuable insights into its role in mammalian cell translation (Sehrawat et al, [2019]), this approach presents several limitations. First, it fails to elucidate the functional significance of the opposing functions of eIF1A N- and C-terminal tails with respect to scanning and start codon fidelity. Second, the extended duration required for achieving efficient knockdown, 48–72 h, impairs our ability to differentiate between direct and indirect effects. To overcome these constraints, we set out to develop small-molecule inhibitors targeting eIF1A. Guided by structural and biochemical studies showing eIF1A binding to the small ribosomal subunit at the A-site and interacting directly with RPS10 through its N-terminal tail (Haimov et al, [2017]; Passmore et al, [2007]; Sehrawat et al, [2019]), our approach focused on disrupting the interaction between eIF1A and RPS10. […] The interaction between eIF1A and RPS10 brings the two parts together, leading to the reconstitution of the enzymatic activity (Haimov et al, [2017]). In this system, the spatial arrangement of the two RL parts is critical for the enzymatic activity, making it sensitive not only to direct interference with the interacting proteins but also to changes in the conformation of the fused proteins. In the eIF1A-RPS10 split-RL pair, the C-terminus of eIF1A is fused to N-RL (Fig. 1A), in order to maintain the NTT accessible to RPS10 binding. This pair was cloned and expressed in bacteria as recombinant proteins and used to screen a library of ~50,000 small molecules from diverse sources (Ashkenazi et al, [2017]).
eIF1A-ΔC-Renilla and RPS10-ΔN-Renilla were transformed into BL21 E. coli by heat shock transformation. A bacterial starter of 5 ml LB was incubated overnight at 37 °C and transferred into 1 L LB for incubation at 37 °C until OD ~ 0.5–0.7. Next, protein expression was induced with 0.5 mM IPTG, and bacterial cells were incubated overnight at 16 °C. Bacterial cell pellet was collected after centrifugation (3000 RPM, 15 min), resuspended in 20 ml TKE buffer (Tris 10 mM, KCl 100 mM, EDTA 0.1 mM), sonicated (bath sonicator, 24 cycles of 30 s) and centrifuged again (15000 RPM, 30 min). Supernatants were collected, analyzed for RL activity, and then used for high throughput drug screen (HTS) at the Weizmann G-INCPM HTS unit as described (Ashkenazi et al, [2017]). In addition to the standard controls of this protocol, the two parts of the split RL, without eIF1A or RPS10, were tested as controls. Selected compounds were purchased from Sigma-Aldrich and Enamine. Compound powders were resuspended in DMSO for a final concentration of 10 mM and stored at −20 °C.

[4] = tested on: IRF7 5'UTR firefly luciferase reporter in HEK293T cells;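 also: luciferase signal corrected by a co-transfected GFP reporter for transfection efficiency, read after overnight compound exposure, with Long and Short reporters differing in 5'UTR length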
[5] = compound at 20uM (summary head)

T1 sequence (P47813 whole entry, one chain of several): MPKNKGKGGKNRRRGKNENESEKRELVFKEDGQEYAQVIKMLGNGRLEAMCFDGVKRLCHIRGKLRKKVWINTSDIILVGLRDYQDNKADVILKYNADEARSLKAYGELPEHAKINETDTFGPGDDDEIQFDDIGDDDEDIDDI

O=C(COc1ccccc1[N+](=O)[O-])NCc1ccc(-c2ccc(Br)cc2)o1 [1A-4700]
firefly/Renilla normalized to DMSO, minus46 reporter ([1]; 95nt from uORF to main ORF experiment summary, experiment 240919, reporter minus46, DMSO = 1): 0.3368 and 0.3707 | firefly/Renilla normalized to DMSO, minus 95nt reporter ([1]; 95nt from uORF to main ORF experiment summary, experiment 240919, reporter minus 95nt, DMSO = 1): 1.123 and 1.106 | firefly/Renilla normalized to DMSO, ref reporter ([1]; 95nt from uORF to main ORF experiment summary, experiment 240919, reporter ref, DMSO = 1): 0.8256 and 0.6094 | 95nt from uORF to main ORF experiment, minus46, average (DMSO = 1) ([1]; minus46 reporter): 0.3537 | 95nt from uORF to main ORF experiment, minus 95nt, average (DMSO = 1) [1]: 1.115 | 95nt from uORF to main ORF experiment, ref, average (DMSO = 1) ([1]; ref reporter): 0.7175

O=C1c2ccccc2NC(c2cc(O)c(O)c(Cl)c2)N1c1ccccc1 (centres unmarked) [1A-8214]
averages of FF vs RL ([1]; block FF-1 (c104), reporter minus46, DMSO 0.0248618): 0.02612 | FF vs RL ([1]; block FF-1 (c104), reporter minus 46, DMSO 2.74E-02, 2.23E-02): 2.94E-02 and 2.28E-02 | FF vs RL ([1]; block FF-1 (c104), reporter minus 46 plus 50, DMSO 2.94E-02, 2.09E-02): 1.20E-02 and 1.67E-02 | averages of FF vs RL ([1]; block FF-1 (c104), reporter minus 95, DMSO 0.0251627): 0.01437 | averages of FF vs RL ([1]; block FF-1 (c104), reporter ref, DMSO 0.0298915): 0.04961 | FF vs RL ([1]; block FF-1 (c104), reporter reference, DMSO 2.79E-02, 3.19E-02): 6.51E-02 and 3.41E-02 | FF vs RL ([1]; block FF-1 (c131), reporter minus 46, DMSO 0.17626, 0.185518): 0.2074 and 0.2118 | averages of FF vs RL ([1]; block FF-1 (c131), reporter minus46, DMSO 0.180889): 0.2096 | FF vs RL ([1]; block FF-1 (c131), reporter minus 46 plus 50, DMSO 0.437858, 0.481275): 0.464 and 0.5005 | averages of FF vs RL ([1]; block FF-1 (c131), reporter minus 95, DMSO 0.459566): 0.4822 | averages of FF vs RL ([1]; block FF-1 (c131), reporter ref, DMSO 0.345569): 0.2779 | FF vs RL ([1]; block FF-1 (c131), reporter reference, DMSO 0.39984, 0.291299): 0.281 and 0.2748 | averages of FF vs RL 2 ([1]; reporter minus46, DMSO 0.0506669): 0.04195 | FF vs RL 2 ([1]; reporter minus 46, DMSO 3.43E-02, 5.07E-02): 4.79E-02 and 3.60E-02 | FF vs RL 2 ([1]; reporter minus 46 plus 50, DMSO 3.05E-02, 1.38E-02): 1.96E-02 and 1.61E-02 | averages of FF vs RL 2 ([1]; reporter minus 95, DMSO 0.0221428): 0.01783 | averages of FF vs RL 2 ([1]; reporter ref, DMSO 0.0383109): 0.05624 | FF vs RL 2 ([1]; reporter reference, DMSO 3.69E-02, 3.97E-02): 6.80E-02 and 4.45E-02 | reporter activity norm to DMSO, minus46 ([1]; minus46 reporter, 95nt from uORF to main ORF experiment, Figure 4N source data, replicate experiments, DMSO = 1): 0.8043 and 1.051 and 0.8279 | 95nt from uORF to main ORF experiment, minus46, average (DMSO = 1) ([1]; minus46 reporter): 0.8942 | reporter activity norm to DMSO, minus 95 ([1]; minus 95 (nt) reporter, 95nt from uORF to main ORF experiment, Figure 4N source data, replicate experiments, DMSO = 1): 1.049 and 0.5709 and 0.8051 | 95nt from uORF to main ORF experiment, minus 95nt, average (DMSO = 1) [1]: 0.8085 | reporter activity norm to DMSO, ref ([1]; ref reporter, 95nt from uORF to main ORF experiment, Figure 4N source data, replicate experiments, DMSO = 1): 1.159 and 1.66 and 1.468 | 95nt from uORF to main ORF experiment, ref, average (DMSO = 1) ([1]; ref reporter): 1.429

CNc1nc(-c2cc(C)n(C)c2C)cs1 [1Ai-0153]
GUG vs AUG data (%) ([2]; compound at 20uM, individual repeat): 1.78% and 1.33% and 1.95% and 1.92% | GUG vs AUG (%) Average ([2]; compound at 20uM, summary average of repeats, DMSO control average […]): 1.74% | IC50 [3]: 27 µM | LONG (summary - All), normalized to DMSO ([4]; Long reporter, 20 µM, individual replicates, outliers excluded, DMSO = 1): 0.73 and 0.87 and 1.53 and 0.96 and 1.14 | SHORT (summary - All), normalized to DMSO ([4]; Short reporter, 20 µM, individual replicates, outliers excluded, DMSO = 1): 0.72 and 0.98 and 1.54 and 1.66 and 1.69 and 1.65 | Long 5'UTR reporter luciferase activity, normalized to DMSO (=1), single replicates ([4]; compound at 20 µM, left data block (Long), source data of Fig 1C): 0.734 and 0.8747 and 1.529 and 0.9608 and 2.673 and 1.141 | average ( long vs short ratio) ([4]; summary - All, 20 µM): 0.762

CNc1nc(-c2cc(C)n(C)c2C)cs1 [compound 153]
CUG vs AUG (%) [2, 5]: 5.937% | GUG vs AUG (%) [2, 5]: 1.586%

O=C(Nc1nc(-c2c[nH]c3ccccc23)cs1)c1cc(=O)[nH]c2ccccc12 [compound 403]
CUG vs AUG (%) ([2]; compound at 5uM (summary head)): 8.469% | GUG vs AUG (%) ([2]; compound at 5uM (summary head)): 1.79%
